Data from PubChem BioAssay (NCI).
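1) Cells in 96-well plates. 2) Compound, 48 h, 5 concentrations. 3) Linear interpolation between surrounding doses. 4) Unreached endpoint = highest concentration. At the TGI there is no net growth.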 Where a SMILES comes first, the peptide text is derived from it. The star is where a group is joined. Boc = CC(C)(C)OC(=O)*

Experiments:
Assay in all cases: NCI tumour cell line growth inhibition, 48 h
A498 renal = test system: A498 renal
ACHN renal = test system: ACHN renal
HOP-62 NSCLC = test system: HOP-62 NSCLC
HOP-92 NSCLC = test system: HOP-92 NSCLC
M14 melanoma = test system: M14 melanoma
MALME-3M melanoma = test system: MALME-3M melanoma
MOLT-4 leukemia = test system: MOLT-4 leukemia
NCI-H460 lung = test system: NCI-H460 lung
SNB-78 CNS = test system: SNB-78 CNS
UACC-257 melanoma = test system: UACC-257 melanoma
UACC-62 melanoma = test system: UACC-62 melanoma
DMS 273 small cell lung = test system: DMS 273 small cell lung
KM20L2 colon = test system: KM20L2 colon
DU-145 prostate = test system: DU-145 prostate
HCT-116 colon = test system: HCT-116 colon
MCF7 breast = test system: MCF7 breast
MDA-N = test system: MDA-N
PC-3 prostate = test system: PC-3 prostate

SMILES | TGI (A498 renal) [µM] | TGI (ACHN renal) [µM] | TGI (HOP-62 NSCLC) [µM] | TGI (HOP-92 NSCLC) [µM] | TGI (M14 melanoma) [µM] | TGI (MALME-3M melanoma) [µM] | TGI (MOLT-4 leukemia) [µM] | TGI (NCI-H460 lung) [µM] | TGI (SNB-78 CNS) [µM] | TGI (UACC-257 melanoma) [µM] | TGI (UACC-62 melanoma) [µM] | TGI (DMS 273 small cell lung) [µM] | TGI (KM20L2 colon) [µM] | TGI (DU-145 prostate) [µM] | TGI (HCT-116 colon) [µM] | TGI (MCF7 breast) [µM] | TGI (MDA-N) [µM] | TGI (PC-3 prostate) [µM]
O=C1C=C(Nc2ccccc2C(=O)CC(=O)C(=O)Nc2ccc(Cl)c(Cl)c2)c2ccccc2C1=O | > 100 | > 100 | > 100 | > 100 | > 100 | 29.8 | > 100 | > 100 | > 100 | 47.6 | 62.2 | – | – | – | – | – | – | –
N#Cc1ccccc1Nc1ccccc1S | > 100 | > 100 | > 100 | 80.3 | – | 80.3 | 33.1 | > 100 | > 100 | > 100 | 37.8 | > 100 | – | – | – | – | – | –
Cc1nc(N)sc1C(=O)/C=C/c1ccc([N+](=O)[O-])cc1 | > 100 | – | > 100 | > 100 | – | > 100 | > 100 | > 100 | > 100 | > 100 | > 100 | > 100 | > 100 | – | – | – | – | –
Cc1cccc(N=C2NC(=O)C(CC(=O)Nc3ccc(Cl)cc3C)S2)c1 (configuration not stated) | > 100 | > 100 | > 100 | – | > 100 | > 100 | > 100 | > 100 | – | > 100 | > 100 | > 100 | > 100 | – | – | – | – | –
CN(C)/C=N/S(=O)(=O)c1nn2c(C=O)c(-c3ccc([N+](=O)[O-])cc3)nc2s1 | > 100 | 10.5 | > 81.9 | 53.5 | > 32.4 | 8.72 | > 21.8 | > 85.9 | – | 40.5 | 23 | – | – | > 41.6 | 6.51 | > 42 | 17 | > 51.9
CCOc1ccc(NC(=O)CCC(=O)NN)cc1 | – | > 100 | > 100 | > 100 | > 100 | > 100 | > 100 | > 100 | > 100 | > 100 | – | > 100 | > 100 | – | – | – | – | –
CCCCCC(=O)Cc1cc(OC)cc2c1C(=O)Oc1cc(O)c(C(=O)O)c(CC(=O)CCCCC)c1O2 | > 100 | > 100 | > 100 | – | > 100 | > 100 | > 100 | > 100 | > 100 | > 100 | 49.6 | > 100 | > 100 | – | 71.2 | – | – | –
COc1ccccc1OC(=O)/C=C/c1ccccc1 | > 100 | > 100 | > 100 | > 100 | > 100 | > 100 | > 100 | > 100 | – | > 100 | > 100 | – | – | > 100 | > 100 | > 100 | > 100 | > 100
O=C1/C(=C\c2c(-c3ccccc3)nn(-c3ccccc3)c2O)C(c2ccccc2)=NN1c1ccccc1 | > 100 | > 100 | > 100 | > 100 | > 100 | > 100 | > 100 | > 100 | – | > 100 | > 100 | – | – | > 100 | > 100 | > 100 | > 100 | > 100
COc1ccc(C2S/C(=C\c3cccc(O)c3)C(=O)N2NC(=O)Cc2ccccc2)cc1 (configuration not stated) | > 100 | > 100 | > 100 | > 100 | > 100 | > 100 | > 100 | > 100 | – | > 100 | > 100 | > 100 | – | – | > 100 | – | – | –
COc1ccc2c(c1)c1c3c(ccc4ncn2c43)N(CCN(C)C)CCN=1 | 2.77 | 5.39 | 1.73 | 4.07 | 2.41 | 2.67 | 1.5 | 0.76 | – | 3.66 | 1.78 | – | – | 5.2 | 1.52 | 1.91 | 1.59 | 1.62
O=c1cc(-c2ccccc2Cl)[nH]c2cc3c(cc12)OCO3 | 4.16 | > 73.9 | 11.3 | 67.5 | 24.3 | > 100 | 2.33 | 5.24 | – | > 72 | 15.7 | – | – | > 18.8 | 16 | > 100 | 0.0383 | > 100
CO[C@H](c1ccccc1)[C@H](C)N(C)c1ccc2ccccc2c1C1=NC(C)(C)CO1 | – | 36.4 | 36 | 30.6 | 33.6 | 33 | 39.3 | 33 | – | 30.6 | > 100 | 39.2 | 27.4 | – | 34.6 | – | – | –
CO[C@@]12CC(=O)/C(=C(O)\C=C\c3ccccc3)C(=O)[C@]1(OC)Cc1ccccc1O2 | 90.7 | 74.2 | 51.7 | > 100 | > 100 | > 100 | 96 | 88.1 | > 100 | > 100 | 52.3 | – | 49.2 | – | > 100 | – | – | –
COc1cccc(/C=C2\C(=O)N(C(=O)Cc3ccccc3)N=C2C)c1 | – | > 100 | > 100 | – | > 100 | > 100 | > 100 | – | > 100 | > 100 | – | > 100 | – | – | > 100 | – | – | –
CCOC(=O)C(CC(C)C)NC(=O)C(Cc1ccccc1)NC(=O)CNC(=O)OC(C)(C)C (stereo not drawn) (Boc-Gly-Phe-Leu-OEt; configuration not given here) | 49.6 | 30.8 | 64 | 64 | 40.2 | 39.4 | 30.6 | 26.6 | – | 36.3 | 35.9 | – | – | 43.6 | 32.6 | 17.3 | 28.4 | 35.7
Nn1c(N=Nc2c(O)[nH]c3ccccc23)n[nH]c1=S | > 100 | > 100 | > 100 | > 100 | > 100 | > 100 | > 100 | > 100 | > 100 | > 100 | > 100 | – | > 100 | – | > 100 | – | – | –
